The values that follow come from patent US11117931B2, “Antimicrobial peptide derived from Hp1404 peptide and uses thereof” (priority 2017, dated 2021).

Where no end group is shown, it is not given here. Where only a bound is given, the exact number is not on record here.

Data set [1] relates to Pseudomonas aeruginosa strain 1034. As to the kind of experiment: In vivo antimicrobial activity, infected skin wound. More on the design: species or system BALB/c mouse. The protocol:
By using Hp1404-T1e found to have the most excellent antimicrobial activity among the peptides that are prepared by the method of Example 1, in vivo antimicrobial activity was measured. Specifically, among the Pseudomonas aeruginosa strains, strain 1034 was selected and tested. The strain was prepared by washing 3 times with PBS buffer. Ciprofloxacin antibiotic was used as a control group. A BALB/c mouse (6 week old) was shaved clean and a wound with pre-determined size was created thereon. Then, the wound site was injected intracutaneously with Pseudomonas aeruginosa strain 1034 ([…], 2×10^5 CFU/ml). After the bacterial infection, the peptide and antibiotic, each prepared at a concentration of 0.1 mg/ml and 0.2 mg/ml, respectively, were intracutaneously injected, and the observation was made everyday. On each day, the skin tissues were sampled and smeared on an NB solid medium. The smeared medium was incubated in an incubator for 18 hours, and the number of grown colonies was counted and expressed in %.

The nature of data set [2]: Cytotoxicity in normal cell line (MTT). It is filed as cell-based. Conditions: human, HaCaT keratinocytes, read-out: Cell survival ability; for viability at 24 h, 6.25 µM: peptide concentration 6.25 μM; for viability at 24 h, 12.5 µM: peptide concentration 12.5 μM; for viability at 24 h, 25 µM: peptide concentration 25 μM; for viability at 24 h, 50 µM: peptide concentration 50 μM; for viability at 24 h, 100 µM: peptide concentration 100 μM; for viability at 24 h, 200 µM: peptide concentration 200 μM, HaCaT. The protocol: To determine the cytotoxicity of the peptide produced by the method of Example 1 in normal cell line, toxicity was measured by using human keratinocytes (HaCaT cell line, Dr. N E. Fusenig, Heidelberg, Germany).
Specifically, HaCaT cells which have been cultured in DMEM medium containing 10% FBS (Fetal Bovine Serum) were aliquoted in a 96-well plate to have 2×10^5 cells per well. After culturing them for 24 hours, the cells were subjected to a treatment with Hp1404, Hp1404-T1, Hp1404-T1a, Hp1404-T1b, Hp1404-T1c, Hp1404-T1d, or Hp1404-T1e, each at concentration of 6.25, 12.5, 25.0, 50.0, 100.0 or 200.0 μM/well, followed by reaction for 24 hours in a 5% CO2 incubator. After 24 hours, a reaction solution containing 0.5 mg/ml MTT (Thiazolyl Blue Tetrazolium Bromide) dissolved in physiological saline (PBS) was added in an amount of 100 μl to each well and the reaction was allowed to occur for 4 hours. After that, the supernatant was removed, and, by dissolving MTT crystals that are formed by adding 200 μl of DMSO (dimethyl sulfoxide), the absorbance at 560 nm was measured to determine the cell survival ability.

The test system of data set [3] is L. monocytogenes. As to the kind of experiment: MIC, L. monocytogenes. It is filed as cell-based, Listeria monocytogenes. Particulars: L. monocytogenes (KCTC 3710), 18 hours at 37° C. The text has this: (§1) To compare the antimicrobial activity among the peptides produced by the method of Example 1, the inventors of the present invention measured the minimal growth inhibitory concentration (MIC), which is minimum concentration of the peptide showing no dissociation of bacterial cells.
(§2) Specifically, the bacterial strain described in the following Table 2 was purchased and cultured to a mid-log phase in each medium with a composition suitable for each strain. Then, after dilution to bacterial cell concentration of 2×10^4 cells/100 μl, the cells were inoculated to a microtiter plate (NUNC, USA). Thereafter, Hp1404-T1, Hp1404-T1a, Hp1404-T1b, Hp1404-T1c, Hp1404-T1d or Hp1404-T1e peptide which has been synthesized in Example 1 above was subjected to serial dilution, ½ times for each, with BSA (bovine serum albumin) solution in a 96-well plate. After adding the cells to a plate, the cells were cultured for 18 hours at 37° C. By using a microtiter plate reader (Merck Elisa reader, Germany), the absorbance was measured at a wavelength of 600 nm to determine the MIC value of each bacterial strain. As a control group, Hp1404 as a mother peptide was used.

Data set [4] has as its system erythrocytes of a mouse (Balb/c). Nature of the data set: Hemolytic activity. It counts as cell-based. On the procedure:
To compare the cytotoxicity among the peptides that are produced by the method of Example 1, erythrocyte hemolytic activity of the synthesized peptide was measured.
Specifically, erythrocytes of a mouse (Balb/c, 6 week old, female) were diluted in physiological saline (PBS, pH 7.0) to have concentration of 8%, and then subjected to a treatment with Hp1404, Hp1404-T1, Hp1404-T1a, Hp1404-T1b, Hp1404-T1c, Hp1404-T1d or Hp1404-T1e, each at concentration of 6.25, 12.5, 25.0, 50.0, 100.0 and 200.0 μM/well, respectively, followed by a reaction for 1 hour at 37° C. After that, the amount of hemoglobin contained in a supernatant collected by centrifuge at 1,000×g was determined by measuring the absorbance at a wavelength of 414 nm. As a control group to be used as a reference for cell disruption level, the supernatant collected by a treatment with 1% Triton X-100 (Sigma, USA) and a reaction for 1 hour at 37° C. was used to measure the absorbance. By setting the resulting absorbance value at 100%, the hemolytic activity of each peptide was calculated using the following mathematical formula 1. Erythrocyte disrupting ability (hemolysis) (%)=(Absorbance A−Absorbance B)/(Absorbance C−Absorbance B)×100 [Mathematical formula 1] (in the above formula, Absorbance A indicates the absorbance of a reaction solution treated with each peptide, in which the absorbance is measured at a wavelength of 414 nm; Absorbance B indicates the absorbance of a reaction solution treated with PBS, in which the absorbance is measured at a wavelength of 414 nm; and Absorbance C indicates the absorbance of a reaction solution treated with 1% Triton X-100, in which the absorbance is measured at a wavelength of 414 nm).

In data set [5] the test system is S. aureus. Nature of the data set: MIC, S. aureus. It is filed as cell-based, Staphylococcus aureus. Particulars: S. aureus (ATCC 25923), 18 hours at 37° C.
Description: as §1, §2

For data set [6], the system named is E. coli. As to the kind of experiment: MIC, E. coli. Conditions: E. coli (ATCC 25922), 18 hours at 37° C. It is filed as cell-based, Escherichia coli.
Description: as §1, §2

The nature of data set [7]: Stability against trypsin enzyme (RP-HPLC). It is filed as in vitro ADME. Conditions: 20 nM trypsin, 37° C., read-out: amount of remaining peptide. On the procedure:
To determine whether or not the peptides prepared by the method of Example 1 have stability against an enzyme, RP-HPLC (reverse-phase HPLC) was carried out. Specifically, 20 μg of the peptide was reacted with 100 μl of trypsin at concentration of 20 nM for 1 to 2 hours at 37° C. After the reaction, 20 μl of the reaction product was applied to RP-HPLC, and the amount of remaining peptide was examined.

Data set [8] relates to plasmid DNA (pRSETB). Nature of the data set: Binding between antimicrobial peptide and DNA (gel electrophoresis). Particulars: peptide/DNA ratio 0.25:1 to 4:1, 10 minutes at 37° C. On the procedure:
To figure out the working mechanism of the synthetic peptides of the present invention for showing the antimicrobial activity, electrophoresis was carried out to examine the possible binding of synthetic peptides, i.e., Hp1404, […], Hp1404-T1d and Hp1404-T1e, to DNA as an internal material of bacteria.
Specifically, after reacting the plasmid DNA (pRSETB, 260 ng) with the peptide at different ratio (i.e., peptide/DNA ratio is as follows for lane number 1 to lane number 8: DNA only, 0.25:1, 0.5:1, 1:1, 1.5:1, 2:1, 3:1, and 4:1. respectively) for 10 minutes at 37° C., they were subjected to electrophoresis using 1% agarose gel followed by ethidium bromide (EtBr) staining and UV visualization.

Data set [9] concerns S. aureus or P. aeruginosa membrane. As to the kind of experiment: Flow cytometry with propidium iodide. Conditions: 2×MIC, 1 hour at 37° C. It counts as cell-based. On the procedure:
Specifically, S. aureus or P. aeruginosa was treated for 1 hour at 37° C. with the mother peptide Hp1404, or Hp1404-T1c, Hp1404-T1d or Hp1404-T1e peptide (at concentration of 2×MIC). After that, the supernatant was removed by centrifuge (10,000 rpm) and stained with propidium iodide (PI, concentration of 10 μg/ml) for 30 minutes at 4° C. Thereafter, unbound propidium iodide was removed by centrifuge, and the problem of cell aggregation phenomenon was solved by adding physiological saline (PBS) in an amount of 1 ml.
A general note: Flow cytometry measures light scatter and fluorescence of single cells or particles in a stream.

Data set [10] relates to lipopolysaccharide (LPS) isolated from P. aeruginosa. As to the kind of experiment: Binding ability between lipopolysaccharide (LPS) and peptide. Particulars: peptide at 1×MIC. On the procedure:
By using the peptides prepared by the method of Example 1, binding to lipopolysaccharide (LPS), which is a constitutional component of a cell wall of Gram-negative bacteria, was examined. LPS used in the present invention was isolated from P. aeruginosa. Lipopolysacchride (0 to 100 μg/ml) was diluted with 10 mM sodium phosphate buffer (pH 7.2), reacted with each peptide at a concentration of 1× or 2×MIC, and then cultured with the bacteria at 2×10^5 CFU/ml. By measuring the absorbance at 600 nm, the binding ability to the peptide was determined. Additionally, after reacting 0.1% […] with the peptide (40 μM) in an incubator, the secondary structure was examined by circular dichroism (CD) spectroscopy.

Broadly, the share remaining is the share of the starting amount still present when the sample was taken.

Turning to `O=C(O)c1cn(C2CC2)c2cc(N3CCNCC3)c(F)cc2c1=O` [ciprofloxacin, reference compound], the wound healing entry in [1] (0.1 mg/ml and 0.2 mg/ml, intracutaneous, observed everyday) is given as “no wound healing at all”. Besides, in data set [1] (treated after the bacterial infection), the “number of colonies, compared with peptide treatment” value is recorded as “higher than that obtained from the peptide treatment condition”.

Take ILGKLWEGVKSI-NH2 [Hp1404-T1]: the viability at 24 h, 6.25 µM in data set [2] came out at 100%. Further, in data set [2], the viability at 24 h, 12.5 µM came to 100%. Further, the viability at 24 h, 25 µM in data set [2] was 100%. For the same compound, the viability at 24 h, 50 µM in data set [2] came out at 100%. Also, the viability at 24 h, 100 µM in [2] is 100%. Moreover, the viability at 24 h, 200 µM in data set [2] worked out at 100%. Further, the Minimal inhibitory concentration in [3], in [5] and in data set [6] was above 25 µM in each case. The Erythrocyte disrupting ability in data set [4] (peptide concentration 6.25 μM), in [4] (peptide concentration 12.5 μM), in [4] (peptide concentration 25 μM), in [4] (peptide concentration 50 μM) and in [4] (peptide concentration 100 μM) was 0% throughout.

Consider ILKKLLEGVKSI-NH2 [Hp1404-T1b], for which the viability at 24 h, 6.25 µM in data set [2] worked out at 100%. For the same compound, in data set [2], the viability at 24 h, 12.5 µM came out at 100%. Further, the viability at 24 h, 25 µM in data set [2] stood at 100%. Besides, the viability at 24 h, 50 µM in data set [2] was found to be 100%. Moreover, the viability at 24 h, 100 µM in data set [2] is 80.9%. The viability at 24 h, 200 µM in data set [2] amounted to 31.9%. For the same compound, the Minimal inhibitory concentration in data set [3], in data set [5] and in data set [6] was above 25 µM each time. Besides, the Erythrocyte disrupting ability in [4] (peptide concentration 6.25 μM) was found to be 0.07%; in data set [4] (peptide concentration 12.5 μM) it was 0.19%; in [4] (peptide concentration 25 μM) it was 0%; in data set [4] (peptide concentration 50 μM), 0%; in data set [4] (peptide concentration 100 μM), 0%.

As for ILKKLLKGVKSI-NH2 [Hp1404-T1c], in data set [7] (reaction for 1 hour), the share remaining at 1 h, 200 μg/mL was at least 80%. The amount remaining at 2 h, 200 μg/mL in data set [7] (reaction for 2 hours) is 80%. Also, in [2], the viability at 24 h, 6.25 µM was 100%; the viability at 24 h, 12.5 µM was determined as 100%; the viability at 24 h, 25 µM came out at 100%; the viability at 24 h, 50 µM worked out at 51.3%. In addition, in data set [2], the viability at 24 h, 100 µM stood at 48.6%. The “binding to DNA” value in data set [8] is “did not bind to any DNA”. The same compound registered an Erythrocyte disrupting ability in [4] (peptide concentration 6.25 μM) of 0%. This compound also gave an Erythrocyte disrupting ability in data set [4] (peptide concentration 12.5 μM) of 0%. Further, the Erythrocyte disrupting ability in data set [4] (peptide concentration 25 μM) worked out at 0%. In [4] (peptide concentration 50 μM), this compound registered an Erythrocyte disrupting ability of 0%. In data set [4] (peptide concentration 100 μM), the Erythrocyte disrupting ability came out at 0%. Further, the “propidium iodide fluorescence signal shift (membrane damage)” value in data set [9] is on record as “no such shift of fluorescence signal”. The “binding to LPS, rank order” value in data set [10] was “binding to LPS increases in order of Hp1404-T1e, Hp1404-T1d, Hp1404-T1c, and Hp1404”.

As for ILKKLWEGVKSI-NH2 [Hp1404-T1a], in data set [2], the viability at 24 h, 6.25 µM turned out to be 100%; the viability at 24 h, 12.5 µM worked out at 100%; the viability at 24 h, 25 µM turned out to be 100%; the viability at 24 h, 50 µM is 100%. In data set [2], the viability at 24 h, 100 µM is 100% and the viability at 24 h, 200 µM stood at 30.7%. This compound displayed an Erythrocyte disrupting ability in [4] (peptide concentration 6.25 μM) of 0%. Besides, the Erythrocyte disrupting ability in [4] (peptide concentration 12.5 μM) is on record as 0%. The compound further displayed an Erythrocyte disrupting ability in data set [4] (peptide concentration 25 μM) of 0%. Besides, the Erythrocyte disrupting ability in data set [4] (peptide concentration 50 μM) is 0%. This compound also gave an Erythrocyte disrupting ability in data set [4] (peptide concentration 100 μM) of 0%.
